Test results: the kinase profiling compilation of Christmann-Franck et al. (2016)
“And” between values parts separate entries of the source, which are not always exact repeats. Identical values can stand only once.

Tests used:
Assay in all cases: radiometric filter-binding kinase assay, Kinase HotSpot
Details in all cases: compound 0.5 µM; ATP 10 µM
ABL1 (human) = ABL1 (human) (UniProt P00519)
CAMK1D (human) = CAMK1D (human) (UniProt Q8IU85)
CAMK2G (human) = CAMK2G (human) (UniProt Q13555)
CDK5 CDK5R1 p25 (human) = CDK5 CDK5R1 p25 (human) (UniProt Q00535+Q15078)
CDK5 CDK5R1 p35 (human) = CDK5 CDK5R1 p35 (human) (UniProt Q00535+Q15078)
CDK6 CCND1 (human) = CDK6 CCND1 (human) (UniProt Q00534+P24385)
CSNK1D (human) = CSNK1D (human) (UniProt P48730)
CSNK1G2 (human) = CSNK1G2 (human) (UniProt P78368)
DAPK2 (human) = DAPK2 (human) (UniProt Q9UIK4)
DAPK3 (human) = DAPK3 (human) (UniProt O43293)
DMPK (human) = DMPK (human) (UniProt Q09013)
EGFR (human) = EGFR (human) (UniProt P00533)
ERBB4 (human) = ERBB4 (human) (UniProt Q15303)
FGFR1 (human) = FGFR1 (human) (UniProt P11362)
FYN (human) = FYN (human) (UniProt P06241)
IKBKE (human) = IKBKE (human) (UniProt Q14164)
ITK (human) = ITK (human) (UniProt Q08881)
JAK3 JH1 JH2 (human) = JAK3 JH1 JH2 (human) (UniProt P52333)
KIT (human) = KIT (human) (UniProt P10721)
LIMK1 (human) = LIMK1 (human) (UniProt P53667)
LYN (human) = LYN (human) (UniProt P07948)
MAP3K11 (human) = MAP3K11 (human) (UniProt Q16584)
MAPK3 (human) = MAPK3 (human) (UniProt P27361)
MAPK8 (human) = MAPK8 (human) (UniProt P45983)
MARK2 (human) = MARK2 (human) (UniProt Q7KZI7)
NEK6 (human) = NEK6 (human) (UniProt Q9HC98)
NEK9 (human) = NEK9 (human) (UniProt Q8TD19)
NTRK2 (human) = NTRK2 (human) (UniProt Q16620)
NTRK3 (human) = NTRK3 (human) (UniProt Q16288)
PAK3 (human) = PAK3 (human) (UniProt O75914)
PAK4 (human) = PAK4 (human) (UniProt O96013)
PAK7 (human) = PAK7 (human) (UniProt Q9P286)
PDPK1 (human) = PDPK1 (human) (UniProt O15530)
PIM3 (human) = PIM3 (human) (UniProt Q86V86)
PKN1 (human) = PKN1 (human) (UniProt Q16512)
PKN2 (human) = PKN2 (human) (UniProt Q16513)
PRKCA (human) = PRKCA (human) (UniProt P17252)
PRKCZ (human) = PRKCZ (human) (UniProt Q05513)
SGK3 (human) = SGK3 (human) (UniProt Q96BR1)
STK39 (human) = STK39 (human) (UniProt Q9UEW8)
TBK1 (human) = TBK1 (human) (UniProt Q9UHD2)
TSSK1B (human) = TSSK1B (human) (UniProt Q9BXA7)
Chain of TSSK1B (human) (Q9BXA7 whole entry, looked up): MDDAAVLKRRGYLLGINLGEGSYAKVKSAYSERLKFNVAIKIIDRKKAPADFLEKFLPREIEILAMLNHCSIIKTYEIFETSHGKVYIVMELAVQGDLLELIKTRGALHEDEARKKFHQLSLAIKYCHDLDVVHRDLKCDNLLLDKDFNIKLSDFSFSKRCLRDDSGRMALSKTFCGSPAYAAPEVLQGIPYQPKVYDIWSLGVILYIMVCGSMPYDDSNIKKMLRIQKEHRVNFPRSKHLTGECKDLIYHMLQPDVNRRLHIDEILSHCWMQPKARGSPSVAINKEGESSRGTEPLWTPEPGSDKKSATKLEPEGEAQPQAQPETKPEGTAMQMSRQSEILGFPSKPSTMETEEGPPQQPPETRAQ

Chain of CAMK1D (human) (Q8IU85 whole entry, looked up): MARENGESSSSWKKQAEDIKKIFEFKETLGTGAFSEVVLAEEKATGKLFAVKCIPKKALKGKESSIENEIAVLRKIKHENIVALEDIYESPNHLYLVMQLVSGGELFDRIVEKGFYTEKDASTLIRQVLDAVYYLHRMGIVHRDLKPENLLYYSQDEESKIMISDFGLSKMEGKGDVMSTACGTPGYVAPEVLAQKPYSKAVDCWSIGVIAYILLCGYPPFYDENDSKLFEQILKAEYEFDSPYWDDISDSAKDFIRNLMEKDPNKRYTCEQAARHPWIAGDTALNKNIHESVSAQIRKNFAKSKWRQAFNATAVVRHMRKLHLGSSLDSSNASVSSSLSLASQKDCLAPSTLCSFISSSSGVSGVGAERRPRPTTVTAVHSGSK
Chain of IKBKE (human) (Q14164 whole entry, looked up): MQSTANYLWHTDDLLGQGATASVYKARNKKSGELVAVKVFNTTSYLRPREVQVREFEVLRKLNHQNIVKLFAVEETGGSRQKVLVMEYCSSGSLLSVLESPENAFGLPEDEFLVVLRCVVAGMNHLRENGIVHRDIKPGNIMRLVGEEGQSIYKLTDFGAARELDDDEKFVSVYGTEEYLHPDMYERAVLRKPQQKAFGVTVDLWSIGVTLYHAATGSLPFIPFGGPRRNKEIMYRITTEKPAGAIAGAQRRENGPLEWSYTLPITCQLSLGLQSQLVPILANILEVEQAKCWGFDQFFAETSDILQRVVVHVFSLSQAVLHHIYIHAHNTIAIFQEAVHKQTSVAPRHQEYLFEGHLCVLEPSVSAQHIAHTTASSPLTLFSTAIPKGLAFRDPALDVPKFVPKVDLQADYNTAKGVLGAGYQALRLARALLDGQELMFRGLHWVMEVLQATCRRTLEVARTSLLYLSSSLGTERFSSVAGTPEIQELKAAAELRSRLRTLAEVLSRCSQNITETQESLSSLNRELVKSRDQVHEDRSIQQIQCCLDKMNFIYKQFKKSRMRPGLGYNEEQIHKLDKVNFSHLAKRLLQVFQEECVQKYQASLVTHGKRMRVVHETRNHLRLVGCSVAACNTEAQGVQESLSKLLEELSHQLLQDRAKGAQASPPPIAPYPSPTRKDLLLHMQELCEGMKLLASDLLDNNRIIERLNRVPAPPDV
Chain of PAK3 (human) (O75914 whole entry, looked up): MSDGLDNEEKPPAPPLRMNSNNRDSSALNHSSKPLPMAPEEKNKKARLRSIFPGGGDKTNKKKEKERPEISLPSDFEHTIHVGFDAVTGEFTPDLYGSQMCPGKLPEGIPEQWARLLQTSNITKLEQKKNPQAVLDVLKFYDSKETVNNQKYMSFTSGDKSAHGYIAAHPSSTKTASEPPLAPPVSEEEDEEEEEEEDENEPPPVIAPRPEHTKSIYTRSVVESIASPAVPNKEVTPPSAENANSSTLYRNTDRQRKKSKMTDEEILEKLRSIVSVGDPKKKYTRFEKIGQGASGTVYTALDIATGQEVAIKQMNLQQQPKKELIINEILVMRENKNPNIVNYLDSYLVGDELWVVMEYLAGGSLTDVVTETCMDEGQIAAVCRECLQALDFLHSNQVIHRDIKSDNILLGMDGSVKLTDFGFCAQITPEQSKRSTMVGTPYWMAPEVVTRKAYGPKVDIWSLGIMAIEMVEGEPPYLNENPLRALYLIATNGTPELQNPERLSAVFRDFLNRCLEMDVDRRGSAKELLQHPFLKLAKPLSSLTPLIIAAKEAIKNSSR
Chain of ABL1 (human) (P00519 whole entry, looked up): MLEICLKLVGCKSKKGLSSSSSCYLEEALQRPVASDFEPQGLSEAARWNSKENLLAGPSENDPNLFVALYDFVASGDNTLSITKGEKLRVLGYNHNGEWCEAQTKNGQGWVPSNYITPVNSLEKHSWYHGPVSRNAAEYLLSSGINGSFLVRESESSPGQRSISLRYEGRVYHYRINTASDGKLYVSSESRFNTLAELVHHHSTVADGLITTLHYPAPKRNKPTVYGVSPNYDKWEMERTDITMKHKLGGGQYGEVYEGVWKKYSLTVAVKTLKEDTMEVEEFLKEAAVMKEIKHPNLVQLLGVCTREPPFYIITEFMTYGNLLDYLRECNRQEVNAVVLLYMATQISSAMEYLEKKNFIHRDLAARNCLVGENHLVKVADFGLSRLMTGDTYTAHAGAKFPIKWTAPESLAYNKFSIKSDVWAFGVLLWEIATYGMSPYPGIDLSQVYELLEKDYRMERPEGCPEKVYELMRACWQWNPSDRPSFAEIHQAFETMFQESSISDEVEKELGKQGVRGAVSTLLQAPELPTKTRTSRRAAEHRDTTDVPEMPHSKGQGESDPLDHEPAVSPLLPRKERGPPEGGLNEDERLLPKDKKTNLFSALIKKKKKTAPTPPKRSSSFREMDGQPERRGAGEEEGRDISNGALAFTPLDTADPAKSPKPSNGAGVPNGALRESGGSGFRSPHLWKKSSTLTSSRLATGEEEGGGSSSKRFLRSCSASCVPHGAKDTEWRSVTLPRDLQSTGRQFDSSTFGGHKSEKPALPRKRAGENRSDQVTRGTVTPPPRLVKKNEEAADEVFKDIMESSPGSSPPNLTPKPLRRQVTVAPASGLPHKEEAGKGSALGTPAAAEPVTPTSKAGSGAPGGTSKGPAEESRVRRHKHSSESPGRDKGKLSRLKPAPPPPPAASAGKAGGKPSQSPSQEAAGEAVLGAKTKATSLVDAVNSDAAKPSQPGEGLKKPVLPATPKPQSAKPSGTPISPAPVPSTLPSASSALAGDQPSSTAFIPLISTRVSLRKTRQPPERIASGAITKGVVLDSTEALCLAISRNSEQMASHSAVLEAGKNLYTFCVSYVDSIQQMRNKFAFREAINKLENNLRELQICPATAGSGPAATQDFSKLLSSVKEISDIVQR
Chain of MARK2 (human) (Q7KZI7 whole entry, looked up): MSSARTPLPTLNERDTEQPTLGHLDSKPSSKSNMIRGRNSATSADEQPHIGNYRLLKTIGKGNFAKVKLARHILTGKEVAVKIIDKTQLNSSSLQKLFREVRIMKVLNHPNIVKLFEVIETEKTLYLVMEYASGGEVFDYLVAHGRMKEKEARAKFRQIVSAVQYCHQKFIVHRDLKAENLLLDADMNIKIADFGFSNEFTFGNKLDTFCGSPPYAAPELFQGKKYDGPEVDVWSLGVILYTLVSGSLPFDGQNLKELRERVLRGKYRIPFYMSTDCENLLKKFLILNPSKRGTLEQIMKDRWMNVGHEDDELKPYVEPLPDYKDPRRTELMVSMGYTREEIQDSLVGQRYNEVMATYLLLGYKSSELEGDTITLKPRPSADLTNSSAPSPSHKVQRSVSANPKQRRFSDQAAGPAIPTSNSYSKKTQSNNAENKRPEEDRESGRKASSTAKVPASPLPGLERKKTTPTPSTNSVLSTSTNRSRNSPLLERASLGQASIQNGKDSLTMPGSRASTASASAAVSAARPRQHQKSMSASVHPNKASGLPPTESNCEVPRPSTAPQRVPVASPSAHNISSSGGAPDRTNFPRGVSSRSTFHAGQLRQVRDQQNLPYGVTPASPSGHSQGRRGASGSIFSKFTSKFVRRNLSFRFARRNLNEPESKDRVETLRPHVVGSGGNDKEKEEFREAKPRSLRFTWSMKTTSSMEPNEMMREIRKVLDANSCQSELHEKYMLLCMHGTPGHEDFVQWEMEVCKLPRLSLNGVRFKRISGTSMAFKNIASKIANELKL
Chain of FGFR1 (human) (P11362 whole entry, looked up): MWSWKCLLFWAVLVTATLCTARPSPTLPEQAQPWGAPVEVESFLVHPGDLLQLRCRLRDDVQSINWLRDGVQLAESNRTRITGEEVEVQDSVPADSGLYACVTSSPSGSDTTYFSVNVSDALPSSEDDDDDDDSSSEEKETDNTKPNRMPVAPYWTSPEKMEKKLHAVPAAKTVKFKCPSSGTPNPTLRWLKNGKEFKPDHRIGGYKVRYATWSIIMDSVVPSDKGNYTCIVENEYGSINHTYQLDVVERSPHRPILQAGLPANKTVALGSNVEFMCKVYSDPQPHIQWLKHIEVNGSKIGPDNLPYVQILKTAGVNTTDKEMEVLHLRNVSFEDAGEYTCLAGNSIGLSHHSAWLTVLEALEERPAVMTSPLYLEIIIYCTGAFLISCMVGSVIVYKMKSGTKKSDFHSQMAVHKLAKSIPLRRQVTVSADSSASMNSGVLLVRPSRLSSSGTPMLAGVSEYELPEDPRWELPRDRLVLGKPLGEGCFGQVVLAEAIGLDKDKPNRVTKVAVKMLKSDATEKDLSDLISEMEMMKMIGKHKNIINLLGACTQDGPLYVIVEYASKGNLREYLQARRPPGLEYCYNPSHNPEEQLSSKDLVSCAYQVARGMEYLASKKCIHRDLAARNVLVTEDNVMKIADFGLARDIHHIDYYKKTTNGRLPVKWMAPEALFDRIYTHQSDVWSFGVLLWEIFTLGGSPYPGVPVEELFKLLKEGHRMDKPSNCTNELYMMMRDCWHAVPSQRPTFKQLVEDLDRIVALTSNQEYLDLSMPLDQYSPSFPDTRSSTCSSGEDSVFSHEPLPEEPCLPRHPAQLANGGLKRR

## Ic1cccc(CSc2nnc(-c3ccncc3)o2)c1
ABL1 (human)
  residual activity: 107%
CAMK1D (human)
  residual activity: 101%
CAMK2G (human)
  residual activity: 96.8%
CDK5 CDK5R1 p25 (human)
  residual activity: 90.5%
CDK5 CDK5R1 p35 (human)
  residual activity: 102%
CDK6 CCND1 (human)
  residual activity: 97.5%
CSNK1D (human)
  residual activity: 103%
CSNK1G2 (human)
  residual activity: 99.2%
DAPK2 (human)
  residual activity: 108%
DAPK3 (human)
  residual activity: 107%
DMPK (human)
  residual activity: 105%
EGFR (human)
  residual activity: 97.1%
ERBB4 (human)
  residual activity: 96.4%
FGFR1 (human)
  residual activity: 92.4%
FYN (human)
  residual activity: 102%
IKBKE (human)
  residual activity: 102%
ITK (human)
  residual activity: 102%
JAK3 JH1 JH2 (human)
  residual activity: 106%
KIT (human)
  residual activity: 99.8%
LIMK1 (human)
  residual activity: 85.8%
LYN (human)
  residual activity: 103% and 99.6%
MAP3K11 (human)
  residual activity: 99.6%
MAPK3 (human)
  residual activity: 95.8%
MAPK8 (human)
  residual activity: 84.7%
MARK2 (human)
  residual activity: 116%
NEK6 (human)
  residual activity: 95.4%
NEK9 (human)
  residual activity: 99.2%
NTRK2 (human)
  residual activity: 91.4%
NTRK3 (human)
  residual activity: 104%
PAK3 (human)
  residual activity: 92.9%
PAK4 (human)
  residual activity: 83.6%
PAK7 (human)
  residual activity: 99.3%
PDPK1 (human)
  residual activity: 98.3%
PIM3 (human)
  residual activity: 106%
PKN1 (human)
  residual activity: 98.6%
PKN2 (human)
  residual activity: 100%
PRKCA (human)
  residual activity: 123%
PRKCZ (human)
  residual activity: 96.1%
SGK3 (human)
  residual activity: 98.5%
STK39 (human)
  residual activity: 101%
TBK1 (human)
  residual activity: 103%
TSSK1B (human)
  residual activity: 97.6%

## Fc1ccc(-c2nc3n(c2-c2ccncc2)CCS3)cc1
ABL1 (human)
  residual activity: 102%
CAMK1D (human)
  residual activity: 100%
CAMK2G (human)
  residual activity: 90.5%
CDK5 CDK5R1 p25 (human)
  residual activity: 98.2%
CDK5 CDK5R1 p35 (human)
  residual activity: 97.8%
CDK6 CCND1 (human)
  residual activity: 97%
CSNK1D (human)
  residual activity: 6.99%
CSNK1G2 (human)
  residual activity: 76.4%
DAPK2 (human)
  residual activity: 113%
DAPK3 (human)
  residual activity: 100%
DMPK (human)
  residual activity: 102%
EGFR (human)
  residual activity: 90.7%
ERBB4 (human)
  residual activity: 83%
FGFR1 (human)
  residual activity: 93.4%
FYN (human)
  residual activity: 108%
IKBKE (human)
  residual activity: 101%
ITK (human)
  residual activity: 97.5%
JAK3 JH1 JH2 (human)
  residual activity: 94.3%
KIT (human)
  residual activity: 92.8%
LIMK1 (human)
  residual activity: 89.3%
LYN (human)
  residual activity: 106% and 97.4%
MAP3K11 (human)
  residual activity: 95.7%
MAPK3 (human)
  residual activity: 103%
MAPK8 (human)
  residual activity: 99%
MARK2 (human)
  residual activity: 96.4%
NEK6 (human)
  residual activity: 98.7%
NEK9 (human)
  residual activity: 102%
NTRK2 (human)
  residual activity: 103%
NTRK3 (human)
  residual activity: 105%
PAK3 (human)
  residual activity: 104%
PAK4 (human)
  residual activity: 99.1%
PAK7 (human)
  residual activity: 97.6%
PDPK1 (human)
  residual activity: 109%
PIM3 (human)
  residual activity: 105%
PKN1 (human)
  residual activity: 101%
PKN2 (human)
  residual activity: 96.3%
PRKCA (human)
  residual activity: 113%
PRKCZ (human)
  residual activity: 90.6%
SGK3 (human)
  residual activity: 95.8%
STK39 (human)
  residual activity: 103%
TBK1 (human)
  residual activity: 90.6%
TSSK1B (human)
  residual activity: 119%

## COc1ccc(Cl)cc1NC(=O)Nc1cc(C)nc2ccccc12
ABL1 (human)
  residual activity: 99.5%
CAMK1D (human)
  residual activity: 99.9%
CAMK2G (human)
  residual activity: 91.6%
CDK5 CDK5R1 p25 (human)
  residual activity: 105%
CDK5 CDK5R1 p35 (human)
  residual activity: 102%
CDK6 CCND1 (human)
  residual activity: 89.8%
CSNK1D (human)
  residual activity: 98.7%
CSNK1G2 (human)
  residual activity: 98.5%
DAPK2 (human)
  residual activity: 99.1%
DAPK3 (human)
  residual activity: 100%
DMPK (human)
  residual activity: 103%
EGFR (human)
  residual activity: 98%
ERBB4 (human)
  residual activity: 97.8%
FGFR1 (human)
  residual activity: 86.1%
FYN (human)
  residual activity: 100%
IKBKE (human)
  residual activity: 107%
ITK (human)
  residual activity: 96%
JAK3 JH1 JH2 (human)
  residual activity: 103%
KIT (human)
  residual activity: 102%
LIMK1 (human)
  residual activity: 87.1%
LYN (human)
  residual activity: 111% and 99.2%
MAP3K11 (human)
  residual activity: 89%
MAPK3 (human)
  residual activity: 94.6%
MAPK8 (human)
  residual activity: 104%
MARK2 (human)
  residual activity: 99.5%
NEK6 (human)
  residual activity: 97.8%
NEK9 (human)
  residual activity: 104%
NTRK2 (human)
  residual activity: 94.6%
NTRK3 (human)
  residual activity: 102%
PAK3 (human)
  residual activity: 98.9%
PAK4 (human)
  residual activity: 77.9%
PAK7 (human)
  residual activity: 85.1%
PDPK1 (human)
  residual activity: 83.9%
PIM3 (human)
  residual activity: 97.6%
PKN1 (human)
  residual activity: 104%
PKN2 (human)
  residual activity: 89.7%
PRKCA (human)
  residual activity: 132%
PRKCZ (human)
  residual activity: 99.4%
SGK3 (human)
  residual activity: 108%
STK39 (human)
  residual activity: 98.5%
TBK1 (human)
  residual activity: 100%
TSSK1B (human)
  residual activity: 94.6%

## O=C1NC(=O)c2c1c1c3ccccc3[nH]c1n1cncc21
ABL1 (human)
  residual activity: 85.6%
CAMK1D (human)
  residual activity: 91.9%
CAMK2G (human)
  residual activity: 52.3%
CDK5 CDK5R1 p25 (human)
  residual activity: 89.4%
CDK5 CDK5R1 p35 (human)
  residual activity: 67%
CDK6 CCND1 (human)
  residual activity: 65.7%
CSNK1D (human)
  residual activity: 17.2%
CSNK1G2 (human)
  residual activity: 63.4%
DAPK2 (human)
  residual activity: 43.8%
DAPK3 (human)
  residual activity: 29.6%
DMPK (human)
  residual activity: 101%
EGFR (human)
  residual activity: 92.7%
ERBB4 (human)
  residual activity: 102%
FGFR1 (human)
  residual activity: 55.2%
FYN (human)
  residual activity: 97.7%
IKBKE (human)
  residual activity: 103%
ITK (human)
  residual activity: 71.4%
JAK3 JH1 JH2 (human)
  residual activity: 140%
KIT (human)
  residual activity: 38%
LIMK1 (human)
  residual activity: 74.7%
LYN (human)
  residual activity: 94.8% and 96.2%
MAP3K11 (human)
  residual activity: 57.5%
MAPK3 (human)
  residual activity: 87.8%
MAPK8 (human)
  residual activity: 83.9%
MARK2 (human)
  residual activity: 34.7%
NEK6 (human)
  residual activity: 88.7%
NEK9 (human)
  residual activity: 77.4%
NTRK2 (human)
  residual activity: 49%
NTRK3 (human)
  residual activity: 26.1%
PAK3 (human)
  residual activity: 100%
PAK4 (human)
  residual activity: 97.1%
PAK7 (human)
  residual activity: 80%
PDPK1 (human)
  residual activity: 89%
PIM3 (human)
  residual activity: 4.48%
PKN1 (human)
  residual activity: 76.4%
PKN2 (human)
  residual activity: 95.5%
PRKCA (human)
  residual activity: 66.5%
PRKCZ (human)
  residual activity: 84.8%
SGK3 (human)
  residual activity: 111%
STK39 (human)
  residual activity: 104%
TBK1 (human)
  residual activity: 81.9%
TSSK1B (human)
  residual activity: 84.4%
